Source: patent publication US20160068466A1, “ESTER DERIVATIVES OF ANDROGEN RECEPTOR MODULATORS AND METHODS FOR THEIR USE” (The University of British Columbia, priority 2013, published 2016)
Where two headings read alike, the source gives them in different places.

Assays:
androgen receptor = target: T1, androgen receptor (Homo sapiens, UniProt P10275, T878A); assay: PSA(6.1 kb)-luciferase reporter assay in LNCaP cells induced with R1881; format: cell-based
T1 construct: LNCaP cells express endogenous AR; endogenous in cells; host or cells: LNCaP
T1 sequence (P10275 1-920 T878A): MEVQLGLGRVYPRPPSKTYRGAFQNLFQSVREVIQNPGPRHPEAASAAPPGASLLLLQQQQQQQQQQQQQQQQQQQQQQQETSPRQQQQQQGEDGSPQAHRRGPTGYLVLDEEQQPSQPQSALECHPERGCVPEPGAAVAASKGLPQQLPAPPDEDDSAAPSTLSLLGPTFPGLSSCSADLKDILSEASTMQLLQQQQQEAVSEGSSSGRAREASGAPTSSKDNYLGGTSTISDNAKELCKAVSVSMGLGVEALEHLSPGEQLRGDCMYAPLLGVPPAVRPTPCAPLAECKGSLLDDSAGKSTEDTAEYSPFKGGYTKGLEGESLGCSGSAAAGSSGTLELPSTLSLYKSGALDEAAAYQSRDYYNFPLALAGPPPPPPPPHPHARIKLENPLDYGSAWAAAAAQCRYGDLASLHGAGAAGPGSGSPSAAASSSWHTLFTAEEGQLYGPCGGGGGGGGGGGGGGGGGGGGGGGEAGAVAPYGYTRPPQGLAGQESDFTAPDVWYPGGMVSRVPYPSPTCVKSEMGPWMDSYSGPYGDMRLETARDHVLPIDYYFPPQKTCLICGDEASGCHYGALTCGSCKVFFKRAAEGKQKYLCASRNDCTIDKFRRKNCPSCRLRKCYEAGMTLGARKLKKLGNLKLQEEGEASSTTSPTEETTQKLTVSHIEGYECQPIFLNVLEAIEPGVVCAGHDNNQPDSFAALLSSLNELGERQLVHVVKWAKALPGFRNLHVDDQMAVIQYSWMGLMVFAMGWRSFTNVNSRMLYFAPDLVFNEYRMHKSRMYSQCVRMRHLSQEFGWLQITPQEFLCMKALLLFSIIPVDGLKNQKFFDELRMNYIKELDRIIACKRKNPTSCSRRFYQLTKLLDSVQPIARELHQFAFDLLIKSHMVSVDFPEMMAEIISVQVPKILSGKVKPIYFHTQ
Description: LNCaP cells were employed for experiments because they are well-differentiated human prostate cancer cells in which ligand-dependent and ligand-independent activation of AR by FSK has been characterized (Nazareth et al 1996 J. Biol. Chem. 271, 19900-19907; and Sadar 1999 J Biol. Chem. 274, 7777-7783). LNCaP cells express endogenous AR and secrete prostate-specific antigen (PSA) (Horoszewicz et al 1983 Cancer Res. 43, 1809-1818). LNCaP cells can be grown either as monolayers in cell culture or as tumors in the well-characterized xenograft model that progresses to castration-resistant prostate cancer (CRPC) in castrated hosts (Sato et al 1996 J. Steroid Biochem. Mol. Biol. 58, 139-146; Gleave et al 1991 Cancer Res. 51, 3753-3761; Sato et al 1997 Cancer Res. 57, 1584-1589; and Sadar et al 2002 Mol. Cancer Ther. 1(8), 629-637). R1881 (a synthetic androgen) is employed since it is stable and avoids problems associated with the labile physiological ligand dihydrotestosterone (DHT).
One well characterized ARE-driven reporter gene construct that has been used extensively is the PSA (6.1 kb) enhance/promoter which contains several AREs and is highly inducible by androgens as well as by FSK (Ueda et al 2002 A J. Biol. Chem. 277, 7076-7085).
LNCaP (2.4×10^4 cell/well) cells were seeded on 24-well plates overnight before transfection with PSA(6.1 kb)-luciferase plasmid (0.25 ug/well) in serum-free, red phenol-free media. The next day, cells were pre-treated with compounds of the disclosure for 1 hour before the addition of synthetic androgen, R1881 (1 nM) to trans activate the androgen receptor. After 48 h of incubation with R1881, the cells were harvested, and relative luciferase activity was determined as a read-out for androgen receptor transcriptional activity. Test compounds were added to the cells at various concentrations and activity for each treatment was normalized to the predicted maximal activity induction (in the absence of test compounds, vehicle only). Transfection experiments were performed using triplicate wells.
Further experiments, as outlined in Example 22, were conducted with LNCaP cells transfected with PSA-luciferase plasmid to evaluate the dose response of particular compounds of the disclosure.

LNCaP cells = assay: AlamarBlue proliferation assay, androgen-dependent proliferation of LNCaP cells in response to R1881; format: cell-based, human; settings: 0.1 nM R1881, 3 days, FIG. 10
Experimental: Protocol: Proliferation assays using AlamarBlue, wherein the % androgen-dependent proliferation represents proliferation of LNCaP cells in response to R1881 compared to basal levels.
PC3 and LNCaP cells were plated in 96-well plates in respective media plus 0.5% FBS. […] Cell viability was measured using alamarBlue Cell Viability Assay (Invitrogen) following the manufacturer's protocol.

LNCaP xenografts = assay: LNCaP xenograft tumor volume in castrated NOD-SCID mice; format: in vivo
Experimental: Male NOD-SCID mice bearing subcutaneous tumors were castrated when tumor volume was approximately 100 mm3.
Tumors were measured using caliphers and the volume calculated by application of the formula (L×W×H)*0.5236.
Animals bearing LNCaP xenografts were dosed daily by oral gavage with 55.23 mg/kg body weight of Compound 7c or CMC/10% DMSO/Tween-20 vehicle control.
Tumors were measured using caliphers and the volume calculated by application of the formula (L×W×H)*0.5236Male

[1] = PSA-luc, mean, read-out: PSA-luc IC50s MEAN
[2] = LNCaP cells transfected with PSA-luciferase plasmid, R1881 1 nM, 48 h, data of FIG. 9, read-out: IC50 (μM + Standard Deviation)

Row | Structure (SMILES) | IC50 (androgen receptor; [1]) [µM] | IC50 (androgen receptor; [2]) [µM] | further results
1 | CC(C)(c1ccc(OC[C@H](O)CCl)cc1)c1ccc(OC[C@H](O)COC(=O)CN)cc1 [(S)-3-(4-(2-(4-((S)-3-chloro-2-hydroxypropoxy)phenyl)propan-2-yl)phenoxy)-2-hydroxypropyl 2-aminoacetate] | 12.1 |  | 
2 | CC(=O)OC[C@@H](O)COc1ccc(C(C)(C)c2ccc(OC[C@H](O)CCl)cc2)cc1 [Compound 1c] |  | 25.6 | 
3 | CC(=O)O[C@H](CCl)COc1ccc(C(C)(C)c2ccc(OC[C@H](O)CO)cc2)cc1 [Compound 3c] |  | 11.6 | 
4 | CC(=O)OC[C@H](COc1ccc(C(C)(C)c2ccc(OC[C@H](O)CCl)cc2)cc1)OC(C)=O [Compound 4c, (S)-3-(4-(2-(4-((S)-3-chloro-2-hydroxypropoxy)phenyl)propan-2-yl)phenoxy)propane-1,2-diyl diacetate] | 15.3 |  | 
5 | CC(=O)OC[C@H](COc1ccc(C(C)(C)c2ccc(OC[C@@H](CCl)OC(C)=O)cc2)cc1)OC(C)=O [Compound 7c, (S)-3-(4-(2-(4-((S)-2-acetoxy-3-chloropropoxy)phenyl)propan-2-yl)phenoxy)propane-1,2-diyl diacetate] |  | 8.81 | potency in proliferation assay relative to active compound (compound A) (LNCaP cells): twice as potent; tumor volume (LNCaP xenografts; Example 25, daily oral gavage, 10% DMSO/corn oil vehicle control, FIG. 11): effective at reducing tumor volume; tumor volume reduction compared with compound A (LNCaP xenografts; Example 25, daily oral gavage, FIG. 11): more effective than its active compound; tumor volume (LNCaP xenografts; Example 26, 55.23 mg/kg body weight daily by oral gavage, CMC/10% DMSO/Tween-20 vehicle control, FIG. 12): effective at reducing tumor volume
6 | COC[C@H](O)COc1ccc(C(C)(C)c2ccc(OC[C@H](O)CCl)cc2)cc1 [Compound B, reference compound] |  | 9.8 | 
7 | CC(=O)OC[C@H](COc1ccc(C(C)(C)c2ccc(OC[C@H]3CO3)cc2)cc1)OC(C)=O [Example 11, (S)-3-(4-(2-(4-((R)-oxiran-2-ylmethoxy)phenyl)propan-2-yl)phenoxy)propane-1,2-diyl diacetate] | 26 |  | 
8 | CC(C)(c1ccc(OC[C@@H](CCl)OC(=O)CCC(=O)O)cc1)c1ccc(OC[C@@H](COC(=O)CCC(=O)O)OC(=O)CCC(=O)O)cc1 [Example 13, (S)-3-(4-(2-(4-((S)-3-chloro-2-hydroxypropoxy)phenyl)propan-2-yl)phenoxy)propane-1,2-diol trisuccinate] | 60.2 |  | 
9 | COC[C@@H](COc1ccc(C(C)(C)c2ccc(OC[C@@H](CCl)OC(C)=O)cc2)cc1)OC(C)=O [Example 21, (S)-1-(4-(2-(4-((S)-2-acetoxy-3-chloropropoxy)phenyl)propan-2-yl)phenoxy)-3-methoxypropan-2-yl acetate] |  | 8.07 | 
